Experimental data as given in patent US5082931A, “Type II bacterial Fc receptors” (University of Florida Research Foundation, Inc., priority 1989, dated 1992).
Residues, ends and D or L forms follow the SMILES beside them.

How the values were obtained:
Set-up in all cases: species or system group A streptococcus
[1] = system: type II Fc receptor on group A streptococcal strain 64/14/HRP; test: Inhibition of 125I-labeled IgG binding to type II Fc receptor-positive bacteria by dipeptides or histidine; conditions: whole bacteria 64/14/HRP, 1.5 hr at 37° C., 20,000 cpm 125I human IgG; concentration range, see FIG. 7, FIG. 9
Procedure: Staphylococcus aureus Cowan I served as the representative type I Fc receptor-positive strain. The group A streptococcal strain 64/14/HRP served as a representative type II Fc receptor-positive strain. The group C streptococcal strain 26RP66 served as a representative type III Fc receptor-positive strain. All strains were grown as stationary cultures in Todd Hewitt broth (Difco) for 18-24 hr at 37° C., harvested by centrifugation and washed in phosphate buffered saline (PBS), pH 7.2.
Glycyl-L-tyrosine, glycyl-L-histidine, glycyl-glycine, glycyl-DL-leucine, glycyl-DL-phenylalanine, and L-histidine were utilized in the tests.
The detection of Fc-reactive proteins on the surface of bacteria was determined by the ability of the bacteria to bind ^125 I-labeled IgG as follows: Briefly, a stock preparation of bacteria was standardized to bind approximately 75% of the 20,000 cpm of labeled IgG added at pH 7.0. Following standardization for the Fc receptor activity, aliquots of bacteria were incubated with ^125 I-labeled IgG and the indicated amount of the dipeptides for 1.5 hr. at 37° C. […] The radioactivity associated with the bacteria was determined in an LKB autogamma counter. The cpm bound to the bacterial pellet were expressed as percent of maximum cpm bound. […]
A standard number of Staphylococcus aureus Cowan strain ( -- ), group C streptococcal strain 26RP66 (.largecircle.--.largecircle.), or the group A streptococcal strain 64/14/HRP ( .circle.--.circle. ) was incubated for 1.5 hr. at 37° C. with 20,000 cpm of ^125 I labeled human IgG in the presence of the indicated amounts of dipeptide. […] The radioactivity associated with the bacteria was determined in an LKB autogamma counter. The cpm bound to the bacterial pellet were expressed as percent of maximum cpm bound.
A standard number of group A streptococci was incubated for 1.5 hr. at 37° C. with 20,000 cpm of the appropriately ^125 I-labeled species IgG in the presence of the indicated amounts of histidine. […] The cpm bound to the bacterial pellet were expressed as percent of maximum cpm bound. […]

[2] = system: type IIb Fc receptor (Mr 38,000; IgG3-specific receptor) of group A streptococcal strain 64/14/HRP; test: Inhibition of 125I-labeled human IgG3 binding to strain 64/14/HRP; conditions: whole bacteria 64/14/HRP, 1.5 hr at 37° C., varying concentrations; FIG. 8 panel C
Procedure: (§1) In the next series of experiments, the ability of the inhibitory dipeptides, glycyl-tyrosine and glycyl-histidine, were tested for their ability to inhibit the binding of each labeled human IgG subclass to the type II receptor-positive 64/14/HRP bacteria. Glycyl-glycine was also included as a negative control.
(§2) A standard number of group A streptococci was incubated for 1.5 hr. at 37° C. with 20,000 cpm of the approprimately ^125 I-labeled human IgG subclasses in the presence of varying concentrations of dipeptide. The bacteria were pelleted by centrifugations of 1000×g for 10 min. and washed twice with 3 ml of veronal buffered saline containing 0.01 M EDTA and 0.1% gelatin. The radioactivity associated with the bacteria was determined in an LKB autogamma counter. The cpm bound to the baterial pellet were expressed as percent of maximum cpm bound. See FIG. 8 wherein Panel A represents the results obtained from the binding of ^125 I IgG1. Panel B represents the results obtained from the binding of ^125 I IgG2. Panel C represents the results obtained from the binding of ^125 I IgG3. Panel D represents the results obtained from the binding of ^125 I IgG4.

[3] = system: type IIa Fc receptor (Mr 56,000; receptor for human IgG1, IgG2 and IgG4) of group A streptococcal strain 64/14/HRP; test: Inhibition of 125I-labeled IgG1, IgG2, IgG4, pig or rabbit IgG binding to strain 64/14/HRP; conditions: whole bacteria 64/14/HRP, 1.5 hr at 37° C.; for inhibition of binding of labeled human IgG1, IgG2 and IgG4 to the bacteria: varying concentrations, FIG. 8 panels A, B, D; for inhibition of binding of labeled pig or rabbit IgG to the bacteria: FIG. 9
Procedure: as §1, §2
In the next series of experiments the effect of histidine, glycyl-histidineor glycyl-tyrosine on the binding of labeled pig or rabbit IgG was tested.
A standard number of group A streptococci was incubated for 1.5 hr. at 37° C. with 20,000 cpm of the appropriately ^125 I-labeled species IgG in the presence of the indicated amounts of histidine. The bacteria were washed as described above. The cpm bound to the bacterial pellet were expressed as percent of maximum cpm bound. In FIG. 9, ( .circle.--.circle. ) represents ^125 I human IgG; ( -- ) represents ^125 I pig IgG; and ( -- ) represents rabbit IgG.

| SMILES | inhibition of binding of 125I-labeled human IgG to type II Fc receptor positive bacteria [1] | inhibition of binding of labeled human IgG3 to the bacteria [2] | inhibition of binding of labeled human IgG1, IgG2 and IgG4 to the bacteria [3] | inhibition of binding of labeled pig or rabbit IgG to the bacteria [3] |
| --- | --- | --- | --- | --- |
| NCC(=O)N[C@@H](Cc1c[nH]cn1)C(=O)O [glycyl-histidine, glycyl-L-histidine] (H-Gly-His-OH) | inhibition | minimal inhibition | efficiently inhibit | inhibited |
| NCC(=O)N[C@@H](Cc1ccc(O)cc1)C(=O)O [glycyl-tyrosine, Glycyl-L-tyrosine] (H-Gly-Tyr-OH) | inhibition | minimal inhibition | efficiently inhibit | inhibited |
| N[C@@H](Cc1c[nH]cn1)C(=O)O [histidine, L-histidine] | inhibited | minimal inhibition | inhibited | inhibited |
